# Measurements published in patent EP3009422A1, “Photo-switchable sulfonylureas and their uses” (Ludwig-Maximilians-Universität München, priority 2014, dated 2016).
# Tests used:
# KATP channels = target: T1, KATP channels (Rattus norvegicus, UniProt Q09429); test: Whole cell patch clamp of HEK293t cells transfected with Kir6.2 and SUR1; type: cell-based; details: for Difference (%) in current change between first and last switch / ΔI [pA] first switch / ΔI [pA] last switch: 400 nm; for reversal potential: n = 5 recordings; for % block: versus 500 µM tolbutamide in the same experiment, n = 3
# T1 construct: expressed in transfected cells; host or cells: HEK293t (Leibniz-Institut DSMZ: #305)
# T1 sequence (Q09429 whole entry): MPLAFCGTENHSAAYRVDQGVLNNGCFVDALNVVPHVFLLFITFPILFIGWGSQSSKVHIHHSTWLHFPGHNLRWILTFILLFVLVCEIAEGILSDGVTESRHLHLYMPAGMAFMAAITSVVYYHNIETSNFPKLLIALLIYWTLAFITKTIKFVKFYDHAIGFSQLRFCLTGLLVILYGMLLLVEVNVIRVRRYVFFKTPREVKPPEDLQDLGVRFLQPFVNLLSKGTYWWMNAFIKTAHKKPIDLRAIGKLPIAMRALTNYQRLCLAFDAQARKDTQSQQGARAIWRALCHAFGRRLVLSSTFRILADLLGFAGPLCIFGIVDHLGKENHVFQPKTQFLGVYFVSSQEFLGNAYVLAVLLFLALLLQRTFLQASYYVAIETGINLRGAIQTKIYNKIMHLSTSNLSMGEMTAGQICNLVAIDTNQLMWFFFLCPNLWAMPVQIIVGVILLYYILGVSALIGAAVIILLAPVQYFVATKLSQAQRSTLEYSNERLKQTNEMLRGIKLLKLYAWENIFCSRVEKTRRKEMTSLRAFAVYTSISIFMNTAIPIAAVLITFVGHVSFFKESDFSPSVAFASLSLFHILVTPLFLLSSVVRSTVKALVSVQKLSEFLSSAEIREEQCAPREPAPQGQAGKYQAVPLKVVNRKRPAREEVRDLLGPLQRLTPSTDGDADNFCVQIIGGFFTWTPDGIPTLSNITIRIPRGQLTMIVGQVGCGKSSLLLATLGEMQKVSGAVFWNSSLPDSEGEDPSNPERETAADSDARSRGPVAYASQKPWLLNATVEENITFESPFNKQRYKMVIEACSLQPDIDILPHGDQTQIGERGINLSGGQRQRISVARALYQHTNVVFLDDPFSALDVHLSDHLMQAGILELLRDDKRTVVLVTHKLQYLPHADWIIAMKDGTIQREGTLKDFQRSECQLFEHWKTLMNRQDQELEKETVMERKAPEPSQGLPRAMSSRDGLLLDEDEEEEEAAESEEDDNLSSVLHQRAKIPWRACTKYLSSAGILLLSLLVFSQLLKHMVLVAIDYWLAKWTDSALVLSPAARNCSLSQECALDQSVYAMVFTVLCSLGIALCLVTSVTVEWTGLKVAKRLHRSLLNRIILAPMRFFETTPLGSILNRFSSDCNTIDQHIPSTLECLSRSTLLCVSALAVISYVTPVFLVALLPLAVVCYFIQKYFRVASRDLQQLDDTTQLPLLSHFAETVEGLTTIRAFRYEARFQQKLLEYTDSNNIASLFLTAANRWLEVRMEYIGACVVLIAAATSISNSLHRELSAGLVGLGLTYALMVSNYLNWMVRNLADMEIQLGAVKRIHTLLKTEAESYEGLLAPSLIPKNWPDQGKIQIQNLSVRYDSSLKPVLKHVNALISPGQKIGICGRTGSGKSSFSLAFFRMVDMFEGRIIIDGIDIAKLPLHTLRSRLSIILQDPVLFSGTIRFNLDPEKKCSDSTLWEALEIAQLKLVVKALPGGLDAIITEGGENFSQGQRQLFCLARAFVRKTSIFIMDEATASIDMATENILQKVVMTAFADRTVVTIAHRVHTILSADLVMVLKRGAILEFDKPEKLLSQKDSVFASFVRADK
# T1 sequence (Q61743 whole entry partner): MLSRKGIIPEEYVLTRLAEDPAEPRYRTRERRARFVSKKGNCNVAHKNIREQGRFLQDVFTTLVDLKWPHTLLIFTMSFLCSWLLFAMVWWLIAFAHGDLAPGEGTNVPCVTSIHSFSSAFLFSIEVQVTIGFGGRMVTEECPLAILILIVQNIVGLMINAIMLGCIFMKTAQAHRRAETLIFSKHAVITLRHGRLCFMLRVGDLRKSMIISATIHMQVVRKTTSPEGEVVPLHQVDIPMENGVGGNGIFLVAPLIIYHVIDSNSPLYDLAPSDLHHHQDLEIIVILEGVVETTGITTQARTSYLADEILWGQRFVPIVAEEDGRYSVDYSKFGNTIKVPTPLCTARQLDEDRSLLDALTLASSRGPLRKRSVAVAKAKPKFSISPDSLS
# Description: HEK293t cells (obtained from Leibniz-Institut DSMZ: #305) were incubated in Dulbecco's Modified Eagle Medium (DMEM) + 10% FBS and used for electrophysiological recordings 24-48 hrs following Lipofectamine transfection with plasmids encoding Kir6.2 (Genbank D50581), rat SUR1 (Genbank L40624) and GFP. Whole cell patch clamp experiments were performed using a standard electrophysiology setup equipped with a HEKA Patch Clamp EPC10 USB amplifier and PatchMaster software (HEKA Electronik). Micropipettes were generated from "Science Products GB200-F-8P with filament" pipettes using a vertical puller. Resistance varied between 5-7 MΩ. Bath solution contained in mM: 3 KCl, 118 NaCl, 25 NaHCO3, 2 CaCl2, 1 MgCl2, 10 HEPES (NaOH to pH 7.4). Pipette solution contained in mM: 90 K-gluconate, 10 NaCl, 10 KCl, 1 MgCl2, 10 EGTA, 60 HEPES (KOH to pH 7.3), and the holding potential was -60 mV. Illumination during electrophysiology and UV/Vis experiments was provided by a TILL Photonics Polychrome 5000 monochromator.
# [1] = Water solubility on dilution from DMSO stock; type: physicochemical; details: kinetic from dmso stock, diluted from a 50 mM stock solution in DMSO
# [2] = pKa measurement, absorbance-based platereader assay; type: physicochemical; details: DMSO/buffer mixture (1/1), pH 3.33-6.33, sigmoidal fitting, n = 3 assays
# Description: Extinction coefficients were measured on a BMG Labtech Omega Series FLUOstar microplate reader with clear flat-bottom white 96 wellplates by full spectra acquirement in low K^+ external bath buffer (containing in mM: 3 KCl, 118 NaCl, 25 NaHCO3, 2 CaCl2, 1 MgCl2, 10 HEPES; NaOH to pH 7.4). All JB253-containing solutions (dilution series, n = 4: 10 nM; 100 nM; 1 µM; 10 µM; 25 µM; 50 µM) were background substracted and fitted with a linear slope. […] Full absorbance spectra (280-800 nm) were acquired and background subtracted before spectral differences were calculated. The total change of maximal positive and maximal negative difference was calculated and plotted against pH. Sigmoidal fit of the obtained plot gave access to the pKa.
# SUR1 = target: T2, SUR1 (Rattus norvegicus, UniProt Q09429); test: [3H]-glibenclamide displacement radioassay in SUR1-expressing HEK293t cells; type: binding
# T2 construct: expressed in transfected cells; host or cells: HEK293t
# T2 sequence (Q09429 whole entry): as the sequence (Q09429 whole entry) above
# Description: SUR1-expressing HEK293t cells were harvested and washed twice in assaying buffer containing in mM: 119 NaCl, 4.7 KCl, […], 1.2 KH2PO4, 1.2 MgSO4, 5 NaHCO3, and 20 HEPES, pH 7.4. In a 96-well plate, ∼200,000 cells/well were incubated for 50 min with [3H]-glibenclamide (PerkinElmer) and different concentrations of glimepiride (Sigma-Aldrich) or JB253. Incubation was terminated by rapid filtration through Whatman GF/C filters by means of a Brandel MWXR-96 TI harvester and filters were washed 3 times with ice-cold assay buffer. Radioactivity was counted 6 h after cell and filter lysis in 200 µL Rotiszint EcoPlus (Roth) using a Packard microbeta scintillation counter (PerkinElmer).
# Data distribution was determined using the D'Agostino omnibus test. Non-multifactorial pairwise comparisons were made using either the Student's t-test. Interactions between multiple treatments were assessed using one-way ANOVA followed by pairwise comparisons using Bonferroni's post-hoc test. Effect sizes in islets/cells are usually sufficiently large that multiple animals/independent replication is a more important determinant of power in studies requiring statistical comparison. Non-linear regression was used to calculate the EC50 of normalized and log-transformed concentration-response curves. For [3H]-glibenclamide displacement assays, data points were fitted to the Hill equation before calculation of the halfmax value. In all cases, analysis was performed using Graphpad Prism (Graphpad Software) and IgorPro, and experimental numbers reported as independent biological replicates. No animals or data were excluded from the analysis and results were considered significant at P<0.05.
# isolated murine islets = test: Insulin secretion from isolated islets (static incubation, radioimmunoassay); type: cell-based, mouse
# Description: Insulin secretion was measured from 6 islets per well, incubated at 37 °C for 30 min in 0.5 ml of Krebs-HEPES-bicarbonate (KHB) solution (containing in mM: 130 NaCl, 3.6 KCl, 1.5 CaCl2, 0.5 MgSO4, 0.5 NaH2PO4, 2 NaHCO3, 10 HEPES, and 0.1 % (wt/vol) BSA, pH 7.4) containing the indicated glucose concentration and tolbutamide (100 µM), glimeperide (50 µM), diazoxide (250 µM) and JB253 (50 µM). Illumination (λ = 405 ± 20 nm and 485 ± 6 nm) was performed using a Fluostar Optima microplate reader (BMG Labtech) set to deliver 30 s of light every 2 min to the designated wells. Insulin concentrations were determined in duplicate using specific radioimmunoassay (EMD Millipore).
# [3] = four dark/400 nm cycles, single cell, ± SEM
# [4] = λ 400 nm, 50 µM JB253, ± SD, n = 3 recordings
# [5] = λ 420 nm, 50 µM JB253, ± SD, n = 3 recordings
# [6] = λ 440 nm, 50 µM JB253, ± SD, n = 3 recordings
# [7] = λ 460 nm, 50 µM JB253, ± SD, n = 3 recordings
# [8] = λ 480 nm, 50 µM JB253, ± SD, n = 3 recordings
# [9] = λ 500 nm, 50 µM JB253, ± SD, n = 3 recordings
smiles,measurement,setting,value
"CCN(CC)c1ccc(/N=N/c2ccc(S(=O)(=O)NC(=O)NC3CCCCC3)cc2)cc1 [JB253, (E)-N-(cyclohexylcarbamoyl)-4-((4-(diethylamino)phenyl)diazenyl)benzenesulfonamide]",Difference (%) in current change between first and last switch,"KATP channels; experiment 1, 12 cycles",34.4%
same,ΔI [pA] first switch,"KATP channels; experiment 1, 12 cycles",136.5 pA
same,ΔI [pA] last switch,"KATP channels; experiment 1, 12 cycles",89.5 pA
same,Difference (%) in current change between first and last switch,"KATP channels; experiment 2, 9 cycles",3.4%
same,ΔI [pA] first switch,"KATP channels; experiment 2, 9 cycles",438.8 pA
same,ΔI [pA] last switch,"KATP channels; experiment 2, 9 cycles",423.8 pA
same,Difference (%) in current change between first and last switch,"KATP channels; experiment 3, 5 cycles",19.5%
same,ΔI [pA] first switch,"KATP channels; experiment 3, 5 cycles",200.0 pA
same,ΔI [pA] last switch,"KATP channels; experiment 3, 5 cycles",161.0 pA
same,Difference (%) in current change between first and last switch,"KATP channels; experiment 4, 4 cycles",2.1%
same,ΔI [pA] first switch,"KATP channels; experiment 4, 4 cycles",521 pA
same,ΔI [pA] last switch,"KATP channels; experiment 4, 4 cycles",510 pA
same,wavelength of maximal photoblock of KATP channels,KATP channels; HEK293t Kir6.2/SUR1,460 nm
same,photoswitching of K^+ currents at wavelengths > 560 nm,"KATP channels; HEK293t Kir6.2/SUR1, holding potential -60 mV, n = 3 recordings",unable to photoswitch
same,τon,KATP channels; block upon exposure to 400 nm,400 ms
same,K^+ current amplitude,"KATP channels; dark state, 50 µM JB253, a fraction of the effect of 500 µM tolbutamide",partly reduced
same,reversal potential,"KATP channels; dark, ± SEM",-90.0 ± 1.8 mV
same,ΔI,KATP channels; [3],504.8±6.9 pA
same,τoff,KATP channels; [3],1472 ± 75 ms
same,τon,KATP channels; [3],477 ± 26 ms
same,reversal potential,"KATP channels; illuminated, ± SEM",-87.8 ± 1.6 mV
same,block relative to that recorded using 500 µM tolbutamide,"KATP channels; illumination with wavelengths between 400-500 nm, 50 µM JB253",45-72%
same,difference in ΔI [pA] between first and last switch,"KATP channels; repeated dark/400 nm cycles, mean of all experiments",14.9 ± 7.6%
same,τoff,KATP channels; thermal relaxation after light source shut off (400 nm),1500 ms
same,ΔI,"KATP channels; λ 400 nm, 50 µM JB253, single representative experiment",216 pA
same,% block,"KATP channels; λ 400 nm, 50 µM JB253, ± SD",44.0±29.6%
same,τoff,KATP channels; [4],2758 ± 745 ms
same,τon,KATP channels; [4],1176 ± 385 ms
same,ΔI,"KATP channels; λ 420 nm, 50 µM JB253, single representative experiment",492 pA
same,% block,"KATP channels; λ 420 nm, 50 µM JB253, ± SD",69.4±51.1%
same,τoff,KATP channels; [5],2209 ± 482 ms
same,τon,KATP channels; [5],1309 ± 438 ms
same,ΔI,"KATP channels; λ 440 nm, 50 µM JB253, single representative experiment",440 pA
same,% block,"KATP channels; λ 440 nm, 50 µM JB253, ± SD",70.0±44.3%
same,τoff,KATP channels; [6],2295 ± 397 ms
same,τon,KATP channels; [6],1246 ± 421 ms
same,ΔI,"KATP channels; λ 460 nm, 50 µM JB253, single representative experiment",481 pA
same,% block,"KATP channels; λ 460 nm, 50 µM JB253, ± SD",72.8±48.1%
same,τoff,KATP channels; [7],1940 ± 322 ms
same,τon,KATP channels; [7],1181 ± 447 ms
same,ΔI,"KATP channels; λ 480 nm, 50 µM JB253, single representative experiment",487 pA
same,% block,"KATP channels; λ 480 nm, 50 µM JB253, ± SD",72.4±49.0%
same,τoff,KATP channels; [8],2183 ± 422 ms
same,τon,KATP channels; [8],1163 ± 434 ms
same,ΔI,"KATP channels; λ 500 nm, 50 µM JB253, single representative experiment",482 pA
same,% block,"KATP channels; λ 500 nm, 50 µM JB253, ± SD",70.2±49.5%
same,τoff,KATP channels; [9],2002 ± 354 ms
same,τon,KATP channels; [9],1244 ± 462 ms
same,solubility,[1],≥ 100 µM
same,pKa,[2],4.76
same,lower affinity to SUR1 compared to glimepiride,"SUR1; [3H]-glibenclamide displacement, unaffected by illumination",1000 fold
same,IC50,"SUR1; displacement of [3H]-glibenclamide, SUR1-expressing HEK293t cells, n = 3, cis-state may relax thermally during washing",17.6 µM
same,insulin secreted following illumination,"isolated murine islets; 50 µM JB253, 5 mM glucose, 405 nm or 485 nm, 30 min",4-8 fold
same,insulin release in the dark versus control (5 mM glucose),"isolated murine islets; 50 µM JB253, dark, 30 min",similar
same,stimulation of insulin secretion compared with glimepiride,"isolated murine islets; 485 nm light, JB253 50 µM, glimepiride 50 µM",equipotent to glimepiride
